This test has as its target T1, human adenosine A2b receptor (Homo sapiens, UniProt P29275).
T1 sequence (P29275 1-332): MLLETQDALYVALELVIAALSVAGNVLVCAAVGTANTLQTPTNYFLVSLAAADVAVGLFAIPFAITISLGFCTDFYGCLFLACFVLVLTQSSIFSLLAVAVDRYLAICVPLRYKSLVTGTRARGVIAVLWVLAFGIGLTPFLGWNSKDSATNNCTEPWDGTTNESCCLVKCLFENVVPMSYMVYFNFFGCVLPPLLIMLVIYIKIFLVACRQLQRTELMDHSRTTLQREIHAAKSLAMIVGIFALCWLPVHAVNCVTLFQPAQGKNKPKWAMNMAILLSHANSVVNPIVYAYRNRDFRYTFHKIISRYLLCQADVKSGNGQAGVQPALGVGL
As to the kind of experiment: Cellular in vitro reporter gene test for A2b receptor activity (antagonism of NECA). Particulars: recombinant CHO-K1 cells, CRE-luciferase reporter, co-incubation with EC50 concentration of NECA, 3 hours. Set-up: expressed in transfected cells; host or cells: CHO-K1 (Chinese hamster ovary) with CRE-luciferase reporter. It is filed as cell-based. How it is done: The identification of selective antagonists of the human adenosine A2b receptor and the quantification of the efficacy and selectivity of the compounds according to the invention was carried out with the aid of recombinant cell lines for the human adenosine receptors A1, A2a, A2b and A3. These cell lines were originally derived from an ovarepithelial cell of the hamster (Chinese Hamster Ovary, CHO-K1, American Type Culture Collection, Manassas, Va. 20108, USA). In addition to the respective recombinantly expressed adenosine receptor for testing the efficacy at the A1, A2a and A2b receptors, the cell lines contain a reporter gene construct where expression of the firefly (Photinus pyralis) luciferase is under the control of a promoter which can be activated via intracellular signal cascades by stimulation of the receptors with the (not subtype-selective) adenosine receptor agonist NECA (5′-N-ethylcarboxamidoadenosine) [S. J. Hill, J. G. Baker, S. Rhees, Curr. Opin. Pharmacol. 1, 526-532 (2001)].
In the case of the A2a and A2b cell lines, this is a minimal promoter having a plurality of cAMP-responsive elements (CRE). Stimulation of the Gs-coupled A2b or A2a receptors by NECA ultimately leads, via formation of cAMP, to CRE-dependent induction of luciferase expression, which is detected 3 hours after the start of the incubation with NECA using a detection solution in a suitable luminometer. For testing the antagonists, initially, in a pre-experiment, the concentration of NECA which, at the test day in question, results in half-maximum stimulation of luciferase expression (EC50 concentration) is determined. By joint incubation of this EC50 concentration of NECA with the substances to be tested, it is possible to determine their antagonistic activity.
Table 1 below lists the IC50 values from the A2b receptor assay for individual working examples (in some cases as means of a plurality of independent individual determinations and rounded to two significant figures; it may also be the case here that various independent preparations of the respective working example have been used): […]

Molecules are shown by their SMILES.

In the case of `Cc1c(Cn2cc[nH]c2=O)sc2c1c(=O)n(C1CC1C)c(=O)n2CCOC(F)(F)F` (racemic) [Example 270, 5-Methyl-3-(2-methylcyclopropyl)-6-[(2-oxo-2,3-dihydro-1H-imidazol-1-yl)methyl]-1-[2-(trifluoromethoxy)ethyl]thieno[2,3-d]pyrimidine-2,4(1H,3H)-dione], the half-maximal inhibitory concentration (IC50) was found to be 1.5 nM.

As to `Cc1c(Cn2[nH]ccc2=O)sc2c1c(=O)n(C1CC1C)c(=O)n2CCOC(F)(F)F` (racemic) [Example 273, 5-Methyl-3-(2-methylcyclopropyl)-6-[(5-oxo-2,5-dihydro-1H-pyrazol-1-yl)methyl]-1-[2-(trifluoromethoxy)ethyl]thieno[2,3-d]pyrimidine-2,4(1H,3H)-dione], the IC50 was 67 nM. The value for `Cc1c(Cn2nc[nH]c2=O)sc2c1c(=O)n(C1CC1C)c(=O)n2CCOC(F)(F)F` (racemic) [Example 276, 5-Methyl-3-(2-methylcyclopropyl)-6-[(5-oxo-4,5-dihydro-1H-1,2,4-triazol-1-yl)methyl]-1-[2-(trifluoromethoxy)ethyl]thieno[2,3-d]pyrimidine-2,4(1H,3H)-dione] was 2 nM; that for `Cc1c(CN2CCNC2=O)sc2c1c(=O)n(C1CC1C)c(=O)n2CCSC(F)(F)F` (racemic) [Example 279, 5-Methyl-3-(2-methylcyclopropyl)-6-[(2-oxoimidazolidin-1-yl)methyl]-1-{2-[(trifluoromethyl)sulfanyl]ethyl}thieno[2,3-d]pyrimidine-2,4(1H,3H)-dione] was 1.6 nM. With `COCCn1c(=O)n(C2CC2C(F)(F)F)c(=O)c2c(C)c(CN3CCNC3=O)sc21` (racemic) [Example 294, 1-(2-Methoxyethyl)-5-methyl-6-[(2-oxoimidazolidin-1-yl)methyl]-3-[2-(trifluoromethyl)cyclopropyl]thieno[2,3-d]pyrimidine-2,4(1H,3H)-dione] the figure was 20 nM. The value for `COCCn1c(=O)n(C2CC2C(F)(F)F)c(=O)c2c(C)c(Cn3nc[nH]c3=O)sc21` (racemic) [Example 297, 1-(2-Methoxyethyl)-5-methyl-6-[(5-oxo-4,5-dihydro-1H-1,2,4-triazol-1-yl)methyl]-3-[2-(trifluoromethyl)cyclopropyl]thieno[2,3-d]pyrimidine-2,4(1H,3H)-dione] was 120 nM; that for `CCC1CC1n1c(=O)c2c(C)c(CN3CCNC3=O)sc2n(CCOC)c1=O` (racemic) [Example 300, 3-(2-Ethylcyclopropyl)-1-(2-methoxyethyl)-5-methyl-6-[(2-oxoimidazolidin-1-yl)methyl]thieno[2,3-d]pyrimidine-2,4(1H,3H)-dione] was 13 nM. `CCC1CC1n1c(=O)c2c(C)c(Cn3nc[nH]c3=O)sc2n(CCOC)c1=O` (racemic) [Example 303]: the half-maximal inhibitory concentration (IC50) amounted to 71 nM.

`COCCn1c(=O)n(C2CC2OC)c(=O)c2c(C)c(CN3CCNC3=O)sc21` (racemic) [Example 306, 3-(2-Methoxycyclopropyl)-1-(2-methoxyethyl)-5-methyl-6-[(2-oxoimidazolidin-1-yl)methyl]thieno[2,3-d]pyrimidine-2,4(1H,3H)-dione]: the IC50 is 16 nM. With `COCCn1c(=O)n(C2CC2OC)c(=O)c2c(C)c(Cn3nc[nH]c3=O)sc21` (racemic) [Example 309, 3-(2-Methoxycyclopropyl)-1-(2-methoxyethyl)-5-methyl-6-[(5-oxo-4,5-dihydro-1H-1,2,4-triazol-1-yl)methyl]thieno[2,3-d]pyrimidine-2,4(1H,3H)-dione] the figure was 110 nM. The value for `COC(=O)N=C1NCCN1Cc1sc2c(c1C)c(=O)n(C1CC1)c(=O)n2CC1CCCO1` (single isomer, unassigned) [Example 43, Methyl [1-{[3-cyclopropyl-5-methyl-2,4-dioxo-1-(tetrahydrofuran-2-ylmethyl)-1,2,3,4-tetrahydrothieno[2,3-d]pyrimidin-6-yl]methyl}imidazolidin-2-ylidene]carbamate] was 12 nM.

Consider `COC(=O)N=C1NCCN1Cc1sc2c(c1C)c(=O)n(C1CC1)c(=O)n2CC1CCCO1` (single isomer, unassigned) [Example 44, Methyl [1-{[3-cyclopropyl-5-methyl-2,4-dioxo-1-(tetrahydrofuran-2-ylmethyl)-1,2,3,4-tetrahydrothieno[2,3-d]pyrimidin-6-yl]methyl}imidazolidin-2-ylidene]carbamate], for which the IC50 turned out to be 16 nM. With `Cc1c(Cn2cc[nH]c2=O)sc2c1c(=O)n(C1CC1)c(=O)n2CC1CCCO1` (single isomer, unassigned) [Example 47, 3-Cyclopropyl-5-methyl-6-[(2-oxo-2,3-dihydro-H-imidazol-1-yl)methyl]-1-(tetrahydrofuran-2-ylmethyl)thieno[2,3-d]pyrimidine-2,4(1H,3H)-dione] the figure was 140 nM; with `Cc1c(Cn2cc[nH]c2=O)sc2c1c(=O)n(C1CC1)c(=O)n2CC1CCCO1` (single isomer, unassigned) [Example 48, 3-Cyclopropyl-5-methyl-6-[(2-oxo-2,3-dihydro-H-imidazol-1-yl)methyl]-1-(tetrahydrofuran-2-ylmethyl)thieno[2,3-d]pyrimidine-2,4(1H,3H)-dione], 56 nM. The value for `Cc1c(CN2CCNC2=O)sc2c1c(=O)n(C1(C)CC1)c(=O)n2CC1CC1(F)F` (single isomer, unassigned) [Example 64, 1-[(2,2-Difluorocyclopropyl)methyl]-5-methyl-3-(1-methylcyclopropyl)-6-[(2-oxoimidazolidin-1-yl)methyl]thieno[2,3-d]pyrimidine-2,4(1H,3H)-dione] was 13 nM; that for `Cc1c(CN2CCNC2=O)sc2c1c(=O)n(C1(C)CC1)c(=O)n2CC1CC1(F)F` (single isomer, unassigned) [Example 65, 1-[(2,2-Difluorocyclopropyl)methyl]-5-methyl-3-(1-methylcyclopropyl)-6-[(2-oxoimidazolidin-1-yl)methyl]thieno[2,3-d]pyrimidine-2,4(1H,3H)-dione] was 36 nM; that for `Cc1c(Cn2nc[nH]c2=O)sc2c1c(=O)n(C1(C)CC1)c(=O)n2CC1CC1(F)F` (single isomer, unassigned) [Example 67, 1-[(2,2-Difluorocyclopropyl)methyl]-5-methyl-3-(1-methylcyclopropyl)-6-[(5-oxo-4,5-dihydro-1H-1,2,4-triazol-1-yl)methyl]thieno[2,3-d]pyrimidine-2,4(1H,3H)-dione] was 54 nM. As for `Cc1c(Cn2nc[nH]c2=O)sc2c1c(=O)n(C1(C)CC1)c(=O)n2CC1CC1(F)F` (single isomer, unassigned) [Example 68, 1-[(2,2-Difluorocyclopropyl)methyl]-5-methyl-3-(1-methylcyclopropyl)-6-[(5-oxo-4,5-dihydro-1H-1,2,4-triazol-1-yl)methyl]thieno[2,3-d]pyrimidine-2,4(1H,3H)-dione], the IC50 came out at 160 nM. In the case of `Cc1c(CN2CCNC2=O)sc2c1c(=O)n(C1CC1C)c(=O)n2CCCF` (single isomer, unassigned) [Example 91, 1-(3-Fluoropropyl)-5-methyl-3-(2-methylcyclopropyl)-6-[(2-oxoimidazolidin-1-yl)methyl]thieno[2,3-d]pyrimidine-2,4(1H,3H)-dione], the IC50 came to 20 nM.

(Values after patent US20200016159A1, “N3-CYCLICALLY SUBSTITUTED THIENOURACILS AND USE THEREOF” (Bayer Aktiengesellschaft, priority 2016, published 2020).)
